According to patent US7034050B2, “Pseudopeptides growth hormone secretagogues” (priority 2004, dated 2006):

Columns and labels:
[1] = biological target: T1, human pituitary gland tissues (Homo sapiens, UniProt Q92847); test: binding affinity to human pituitary gland tissues; details: compared with ghrelin, hexarelin, MK 0677 and JMV 1843
T1 construct: from tissue; host or cells: human pituitary gland tissue

GH release [2] = test: stimulation of GH release in vitro; assay type: cell-based
[3] = system: rat epididynial adipocytes; test: binding affinity to rat epididynial adipocytes; details: compared with rat ghrelin, MK 0677 and hexarelin
GH release [4] = test: GH release in vivo (neonatal rats injected subcutaneously); parameters: species or system rat

T1 sequence (Q92847 whole entry): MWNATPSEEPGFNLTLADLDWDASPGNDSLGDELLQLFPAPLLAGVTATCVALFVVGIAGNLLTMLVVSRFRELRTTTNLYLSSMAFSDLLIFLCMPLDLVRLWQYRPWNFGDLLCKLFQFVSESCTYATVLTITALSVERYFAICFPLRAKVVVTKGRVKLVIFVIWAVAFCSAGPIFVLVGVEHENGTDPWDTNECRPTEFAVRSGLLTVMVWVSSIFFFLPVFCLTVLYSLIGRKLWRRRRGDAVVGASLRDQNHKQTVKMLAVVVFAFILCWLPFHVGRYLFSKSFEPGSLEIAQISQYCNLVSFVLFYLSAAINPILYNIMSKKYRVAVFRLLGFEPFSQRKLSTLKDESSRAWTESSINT

Substance | binding affinity to human pituitary gland tissues [1] | potency in stimulating the GH release in vitro (GH release [2]) | binding affinity to rat epididynial adipocytes [3] | potency in stimulating the GH release in vivo (GH release [4]) | amount of growth hormone released (GH release [4]; neonatal rats, subcutaneous injection, compared with MK 0677 and hexarelin)
Aib-D-Trp-D-Trpψ[CH═N˜O]Gly-NH2 [Ia] | comparable to that of the natural ligand ghrelin and superior to the binding affinity of the synthetic GH secretagogues | remarkably potent | comparable to that of rat ghrelin and superior to that of MK 0677 and hexarelin | remarkably potent | 
Aib-D-Trp-D-Trpψ[CH2—NH—O]Gly-NH2 [IIa] | comparable to that of the natural ligand ghrelin and superior to the binding affinity of the synthetic GH secretagogues | remarkably potent | comparable to that of rat ghrelin and superior to that of MK 0677 and hexarelin | remarkably potent | exceeded the amount released when the standard GH secretagogues MK 0677 and hexarelin were administered
